Biological target: T1, hMATE1 (Homo sapiens, UniProt Q96FL8)
T1 construct: expressed in transfected cells; host or cells: HEK-293 (293) cells, pEBTetD plasmid, doxycycline-induced
T1 sequence (Q96FL8 1-570): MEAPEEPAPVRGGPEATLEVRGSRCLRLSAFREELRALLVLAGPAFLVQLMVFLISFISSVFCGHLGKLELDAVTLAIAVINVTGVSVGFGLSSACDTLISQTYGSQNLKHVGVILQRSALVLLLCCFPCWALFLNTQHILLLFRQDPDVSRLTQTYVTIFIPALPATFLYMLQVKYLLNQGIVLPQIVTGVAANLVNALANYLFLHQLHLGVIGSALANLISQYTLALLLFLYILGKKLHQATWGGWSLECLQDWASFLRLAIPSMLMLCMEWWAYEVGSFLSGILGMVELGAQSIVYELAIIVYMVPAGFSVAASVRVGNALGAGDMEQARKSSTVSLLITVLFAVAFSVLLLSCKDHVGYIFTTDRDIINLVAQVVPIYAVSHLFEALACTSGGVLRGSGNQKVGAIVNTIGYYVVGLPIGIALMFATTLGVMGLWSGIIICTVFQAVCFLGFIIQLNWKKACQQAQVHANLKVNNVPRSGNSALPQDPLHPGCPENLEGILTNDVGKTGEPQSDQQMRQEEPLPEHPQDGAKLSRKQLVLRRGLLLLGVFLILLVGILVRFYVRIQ
Test: Substrate assessment: iohexol uptake in 293 cells expressing hMATE1 vs control
Type: in vitro ADME
Conditions: 10 μM iohexol, median (95% CI)
Description: We characterized the inhibitory potential of iohexol on major drug transporters recommended by regulatory agencies, which were previously assessed in a clinical transporter phenotyping cocktail study. These transporters include hOAT1, hOAT3, hOCT1, hOCT2, hMATE1, hMATE2K, human organic anion transporter polypeptides (hOATP)1B1, hOATP1B3, and human multidrug resistance protein (hMDR)1. Additionally, we investigated whether iohexol is a substrate for any of the renal transporters among these, including hOAT1/3, hOCT1/2, and hMATE1/2K. Cell‐based uptake assays were used to assess the activities of hOAT1/3, hOCT1/2, hMATE1/2K, and hOATP1B1/1B3. Inside‐out membrane vesicle uptake assays were used to evaluate the activity of hMDR1.
For substrate assessments, iohexol was incubated with stably transfected HEK‐293 cells expressing one of the following transporters: hOAT1, hOAT3, hOCT1, hOCT2, hMATE1, or hMATE2K, as well as with control cells lacking transporter expression. Stably transfected cell lines containing pEBTetD plasmids with wild‐type human transporter cDNAs were generated as previously described. Transporter expression was induced by adding 1 μg/mL doxycycline to the growth medium for at least 20 h. Iohexol would be considered a substrate for these transporters if: (1) the ratio of iohexol uptake in cells expressing the transporter to that in control cells was ≥ 2, and (2) a known inhibitor of the transporter reduced iohexol uptake to ≤ 50% at concentrations ≥ 10 times its inhibition constant or half‐maximal inhibitory concentration.
Uptake assays were performed using stably transfected 293 cells, with or without the expression of one of the following transporters: hOAT1, hOAT3, hOCT1, hOCT2, hMATE1, or hMATE2K, as previously described.^1
For the substrate assessment, cells were incubated with 10 µM iohexol for 10 minutes and 30 minutes for each transporter. Inhibition assays were performed using specific standard substrates for each transporter: 10 µM para-aminohippuric acid (PAH) for hOAT1, 3 µM estrone-3-sulfate (E3S) for hOAT3, 50 µM metformin for hOCT1, 5 µM metformin for hOCT2, and 3 µM 1-methyl-4-phenylpyridinium (MPP+) for hMATE1 and hMATE2K. […]
R version 4.2.1 (R Foundation for Statistical Computing, Vienna, Austria) was used for statistical evaluations and data visualization. The data analysis approach for the in vitro study was detailed by Hsin CH et al..^1 In brief, for transport assays, the initial uptake rate was calculated by normalizing the substrate concentration to both the protein concentration and the incubation time for each dish or well. The transporter-mediated uptake rate (net uptake) was determined by performing an element-wise subtraction of uptake rates from different conditions. […]

- Differences in intracellular accumulation (expression on minus off) (10 minutes): 0.36 (-1.2 to 1.7) pmol/mg protein
- Uptake ratio (transporter-expressing vs non-expressing cells) (10 minutes): 1.1 (0.84 to 1.2)
- Differences in intracellular accumulation (expression on minus off) (30 minutes): -0.67 (-1.6 to 0.61) pmol/mg protein
- Uptake ratio (transporter-expressing vs non-expressing cells) (30 minutes): 0.92 (0.78 to 1.1)
SMILES: CC(=O)N(CC(O)CO)c1c(I)c(C(=O)NCC(O)CO)c(I)c(C(=O)NCC(O)CO)c1I (stereo not shown) [iohexol]

Source: PMC11788587, “Validating Low‐Dose Iohexol as a Marker for Glomerular Filtration Rate by In Vitro and In Vivo Studies” (Clinical and Translational Science, 2025)
